Assays:
[1] = tested on: aromatase; assay: PET studies in baboon brain; conditions: for brain penetration / uptake in amygdala and preoptic area (PET images): baboon brain; for brain penetration: at 2.5 min; for uptake in amygdala and preoptic area (PET images): images summed 15-90 min after injection
[2] = Measurement of log D; conditions: 1-octanol / phosphate buffered saline pH 7.4
[3] = Measurement of free fraction in plasma; conditions: baboon plasma, room temperature, 10 min incubation
[4] = for appearance of labeled metabolites in plasma: compared with N-1 (11C-1)
[5] = tested on: aromatase; conditions: cited from earlier work

SMILES: N#Cc1ccc(C(c2ccc(C#N)cc2)n2cncn2)cc1 [letrozole, reference compound]
- effect of pretreatment on [N-methyl-11C]vorozole (11C-1) accumulation in brain ([1]; baboon, blocking dose 0.1 mg/kg, 5 min prior, all brain regions examined): reduced

SMILES: [11CH3]n1nnc2cc(C(c3ccc(Cl)cc3)n3cncn3)ccc21 (centres unmarked) [^11C-3]
- brain penetration [1]: 0.02-0.03 %ID/cc
- uptake in amygdala and preoptic area (PET images) [1]: no specific uptake in amygdala and preoptic area
- Log D at pH 7.4 (n=4) [2]: 2.5
- Percent unbound in plasma (n=2) [3]: 8.1%
- appearance of labeled metabolites in plasma ([4]; baboon plasma): very rapid appearance of labeled metabolites
- area under curve (AUC) in plasma normalized to the injected dose ([4]; baboon, over 90 minutes): similar

SMILES: [11CH3]n1nc2ccc([C@H](c3ccc(Cl)cc3)n3cncn3)cc2n1 [^11C-2]
- brain penetration [1]: 0.02-0.03 %ID/cc
- uptake in amygdala and preoptic area (PET images) [1]: no specific uptake in amygdala and preoptic area
- Log D at pH 7.4 (n=4) [2]: 2.9
- Percent unbound in plasma (n=2) [3]: 4.6%
- disappearance of the parent labeled compound from plasma ([4]; baboon plasma): rapid rate of disappearance
- appearance of labeled metabolites in plasma ([4]; baboon plasma): very rapid appearance of labeled metabolites

SMILES: Cn1nnc2ccc([C@@H](c3ccc(Cl)cc3)n3cncn3)cc21 [(R)-vorozole]
- activity of enantiomer at aromatase [5]: inactive

From article PMC3693459 (Nuclear medicine and biology, 2009)
